From patent US9328122B2, “7-substituted Hanfangichin B derivative, and preparation method and use thereof” (HANGZHOU BENSHENG PHARMACEUTICAL CO., LTD., priority 2012, dated 2016) come the findings set out here.

SMILES strings stand for the structures. Values after ≈ are worked out from the molar mass of the structure shown.

One test deals with NB4 (acute promyelocytic leukemia) cells. Nature of the test: MTT cell growth inhibition, leukemia cells. Type of test: cell-based. As to conditions: Homo sapiens; NB4, 72 h, MTT; read-out: IC50. The text has this:
(§1) Leukemia cell lines: leukemia cell lines: K562adr (drug-resistant, chronic myeloid leukemia, CML), NB4 (acute promyelocytic leukemia, AML), Kasumi-1 (acute myeloid leukemia M2 type, AML-M2), Jurkat (acute lymphoblastic leukemia, ALL), all of which were donated by Cancer Research Institute of Zhejiang University, China; and H9 (acute lymphoblastic leukemia, ALL), which was purchased from China Center for Type Culture Collection.
(§2) Reagents: The standard sample of fangchinoline (FAN) was purchased from Ci Yuan Biotechnology Co., Ltd., Shaanxi, China; and the 7-substituted fangchinoline derivatives according to the present invention.
(§3) 6000 well-growing leukemia cells were obtained and inoculated into wells of a 96-well cell culture plate. The culture medium was a RPMI-1640 cell culture medium containing 10% fetal bovine serum. After adding the 7-substituted fangchinoline derivatives of different concentrations the next day and mixing uniformly, the plate was placed in a carbon dioxide cell incubator (5% CO2) at 37° C. and incubating for 72 hours. Then the viable cell concentration was determined by the MTT method.
On to `COc1ccc2cc1Oc1ccc(cc1)C[C@H]1c3cc(c(OC)cc3CCN1C)Oc1c(OCc3cccc(F)c3F)c(OC)cc3c1[C@H](C2)N(C)CC3` [BS-FC-204], for which the IC50 is 0.39 µg/mL (≈ 0.531 µM).

Still in this test, the particulars now being: Homo sapiens; NB4, 72 h, MTT; read-out: IC90.
In the case of `COc1ccc2cc1Oc1ccc(cc1)C[C@H]1c3cc(c(OC)cc3CCN1C)Oc1c(OCc3cccc(F)c3F)c(OC)cc3c1[C@H](C2)N(C)CC3` [BS-FC-204], the concentration for an effect of 90% (IC90) is 2.57 µg/mL (≈ 3.5 µM).

The next test relates to K562/ADR (K562adr, drug-resistant chronic myeloid leukemia) cells. The test is described as follows: MTT cell growth inhibition, leukemia cells. It counts as cell-based. Particulars: Homo sapiens; K562/ADR, 72 h, MTT; read-out: IC50.
Excerpt: as §1, §2, §3
For `COc1ccc2cc1Oc1ccc(cc1)C[C@H]1c3cc(c(OC)cc3CCN1C)Oc1c(OCc3cccc(F)c3F)c(OC)cc3c1[C@H](C2)N(C)CC3` [BS-FC-204], the IC50 was found to be 0.38 µg/mL (≈ 0.517 µM).

The same test, now with this note: Homo sapiens; K562/ADR, 72 h, MTT; read-out: IC90.
Take `COc1ccc2cc1Oc1ccc(cc1)C[C@H]1c3cc(c(OC)cc3CCN1C)Oc1c(OCc3cccc(F)c3F)c(OC)cc3c1[C@H](C2)N(C)CC3` [BS-FC-204]: the IC90 worked out at 1.92 µg/mL (≈ 2.61 µM).

A further test relates to Kasumi-1 (acute myeloid leukemia M2 type) cells. The test is described as follows: MTT cell growth inhibition, leukemia cells. It counts as cell-based, human. Particulars: Homo sapiens; Kasumi-1, 72 h, MTT; read-out: IC50.
Excerpt: as §1, §2, §3
In the case of `COc1ccc2cc1Oc1ccc(cc1)C[C@H]1c3cc(c(OC)cc3CCN1C)Oc1c(OCc3cccc(F)c3F)c(OC)cc3c1[C@H](C2)N(C)CC3` [BS-FC-204], the IC50 was found to be 1.29 µg/mL (≈ 1.76 µM).

Still in this test, the particulars now being: Homo sapiens; Kasumi-1, 72 h, MTT; read-out: IC90.
Turning to `COc1ccc2cc1Oc1ccc(cc1)C[C@H]1c3cc(c(OC)cc3CCN1C)Oc1c(OCc3cccc(F)c3F)c(OC)cc3c1[C@H](C2)N(C)CC3` [BS-FC-204], the IC90 stood at 3.16 µg/mL (≈ 4.3 µM).

For the next test, the system named is H9 (acute lymphoblastic leukemia) cells. The test is described as follows: MTT cell growth inhibition, leukemia cells. It counts as cell-based, human. Particulars: Homo sapiens; H9, 72 h, MTT; read-out: IC50.
Excerpt: as §1, §2, §3
With `COc1ccc2cc1Oc1ccc(cc1)C[C@H]1c3cc(c(OC)cc3CCN1C)Oc1c(OCc3cccc(F)c3F)c(OC)cc3c1[C@H](C2)N(C)CC3` [BS-FC-204], the IC50 is 2.2 µg/mL (≈ 2.99 µM).

Staying with this test, now noted: Homo sapiens; H9, 72 h, MTT; read-out: IC90.
For `COc1ccc2cc1Oc1ccc(cc1)C[C@H]1c3cc(c(OC)cc3CCN1C)Oc1c(OCc3cccc(F)c3F)c(OC)cc3c1[C@H](C2)N(C)CC3` [BS-FC-204], the 90% effect concentration (IC90) is 3.7 µg/mL (≈ 5.04 µM).

In the next test the test system is Jurkat (acute lymphoblastic leukemia) cells. Nature of the test: MTT cell growth inhibition, leukemia cells. Type of test: cell-based, human. As to conditions: Homo sapiens; Jurkat, 72 h, MTT; read-out: IC50.
Excerpt: as §1, §2, §3
Take `COc1ccc2cc1Oc1ccc(cc1)C[C@H]1c3cc(c(OC)cc3CCN1C)Oc1c(OCc3cccc(F)c3F)c(OC)cc3c1[C@H](C2)N(C)CC3` [BS-FC-204]: the 50% inhibitory concentration (IC50) stood at 2.23 µg/mL (≈ 3.03 µM).

Still in this test, the particulars now being: Homo sapiens; Jurkat, 72 h, MTT; read-out: IC90.
Regarding `COc1ccc2cc1Oc1ccc(cc1)C[C@H]1c3cc(c(OC)cc3CCN1C)Oc1c(OCc3cccc(F)c3F)c(OC)cc3c1[C@H](C2)N(C)CC3` [BS-FC-204], the IC90 stood at 3.86 µg/mL (≈ 5.25 µM).

The subject of the next test is Becap-37 (human breast cancer) cells. Nature of the test: MTT cell growth inhibition, solid tumor cells. It counts as cell-based. As to conditions: Homo sapiens; Becap-37, 72 h, MTT; read-out: IC50. An excerpt:
(§4) Hep-2 (laryngeal carcinoma), A549 (human lung cancer), CaES-17 (esophageal cancer cell), PC-3 (prostate cancer), CNE (nasopharyngeal carcinoma cell) and SK-OV-3 (ovarian cancer cell), all of which were purchased from China Center For Type Culture Collection; RKO (human colon adenocarcinoma cell), MGC-803 (human gastric cancer cell), MG-63 (osteosarcoma), and U87-MG (malignant glioma cell), all of which were purchased from Fuxiang Bio-tech Co. Ltd., Shanghai, China; PANC-1 (pancreatic cancer), Becap37 (human breast cancer cell), Hela (human cervical cancer cell) and Hep G2 (human liver cancer cell), all of which were donated by Cancer Research Institute of Zhejiang University, China.
(§5) 6000 well-growing human solid tumor cells were obtained and inoculated into wells of a 96-well cell culture plate. The culture medium was DMEM High Glucose cell culture medium containing 10% fetal bovine serum. The plate was placed in a carbon dioxide cell incubator (5% CO2) at 37° C. and incubated for 24 hours. After added with 7-substituted fangchinoline derivatives of different concentration and mixing uniformly, the plate was placed in a carbon dioxide cell incubator (5% CO2) at 37° C. and incubated for 72 hours. Then the viable cell concentration was determined by the MTT method.
As for `COc1ccc2cc1Oc1ccc(cc1)C[C@H]1c3cc(c(OC)cc3CCN1C)Oc1c(OCc3cccc(F)c3F)c(OC)cc3c1[C@H](C2)N(C)CC3` [BS-FC-204], the IC50 was 4.87 µg/mL (≈ 6.63 µM).

Staying with this test, now noted: Homo sapiens; Becap-37, 72 h, MTT; read-out: IC90.
Turning to `COc1ccc2cc1Oc1ccc(cc1)C[C@H]1c3cc(c(OC)cc3CCN1C)Oc1c(OCc3cccc(F)c3F)c(OC)cc3c1[C@H](C2)N(C)CC3` [BS-FC-204], the concentration for an effect of 90% (IC90) worked out at 7.89 µg/mL (≈ 10.7 µM).

A further test concerns Hep G2 (human liver cancer) cells. The test is described as follows: MTT cell growth inhibition, solid tumor cells. Type of test: cell-based. Particulars: Homo sapiens, HepG2; Hep G2, 72 h, MTT; read-out: IC50.
Excerpt: as §4, §5
On to `COc1ccc2cc1Oc1ccc(cc1)C[C@H]1c3cc(c(OC)cc3CCN1C)Oc1c(OCc3cccc(F)c3F)c(OC)cc3c1[C@H](C2)N(C)CC3` [BS-FC-204], for which the IC50 stood at 3.73 µg/mL (≈ 5.08 µM).

Staying with this test, now noted: Homo sapiens, HepG2; Hep G2, 72 h, MTT; read-out: IC90.
On to `COc1ccc2cc1Oc1ccc(cc1)C[C@H]1c3cc(c(OC)cc3CCN1C)Oc1c(OCc3cccc(F)c3F)c(OC)cc3c1[C@H](C2)N(C)CC3` [BS-FC-204], for which the concentration for an effect of 90% (IC90) was determined as 7.96 µg/mL (≈ 10.8 µM).

The subject of the next test is U87-MG (malignant glioma) cells. The test is described as follows: MTT cell growth inhibition, solid tumor cells. It counts as cell-based. As to conditions: Homo sapiens, U-87 MG; U87-MG, 72 h, MTT; read-out: IC50.
Excerpt: as §4, §5
As for `COc1ccc2cc1Oc1ccc(cc1)C[C@H]1c3cc(c(OC)cc3CCN1C)Oc1c(OCc3cccc(F)c3F)c(OC)cc3c1[C@H](C2)N(C)CC3` [BS-FC-204], the IC50 was 2.38 µg/mL (≈ 3.24 µM).

The same test, now with this note: Homo sapiens, U-87 MG; U87-MG, 72 h, MTT; read-out: IC90.
As to `COc1ccc2cc1Oc1ccc(cc1)C[C@H]1c3cc(c(OC)cc3CCN1C)Oc1c(OCc3cccc(F)c3F)c(OC)cc3c1[C@H](C2)N(C)CC3` [BS-FC-204], the concentration for an effect of 90% (IC90) came out at 9.1 µg/mL (≈ 12.4 µM).

The subject of the next test is RKO (human colon adenocarcinoma) cells. Nature of the test: MTT cell growth inhibition, solid tumor cells. Type of test: cell-based. As to conditions: Homo sapiens; RKO, 72 h, MTT; read-out: IC50.
Excerpt: as §4, §5
In the case of `COc1ccc2cc1Oc1ccc(cc1)C[C@H]1c3cc(c(OC)cc3CCN1C)Oc1c(OCc3cccc(F)c3F)c(OC)cc3c1[C@H](C2)N(C)CC3` [BS-FC-204], the half-maximal inhibitory concentration (IC50) was found to be 1.66 µg/mL (≈ 2.26 µM).

As usually defined, the IC50 is the concentration that gives 50% inhibition. For orientation: IC90 means the concentration at which the effect reaches the 90% level.
